Data taken from patent publication US8937072B2, “Substituted cyanoaniline compounds, preparation and use thereof” (Sinochem Corporation, priority 2011, dated 2015).
Read-outs that look alike come from different tables or passages of the source.

Tests used:
[1] = tested on: rice blast; assay: microbe, parasite or virus in culture; type: cell-based; conditions: for inhibition at 0.03 µg/mL: read-out: the inhibition rate against rice blast (%) 0.03 mg/L; for inhibition at 0.1 µg/mL: read-out: the inhibition rate against rice blast (%) 0.1 mg/L; for the inhibition rate against rice blast (%) 0.03 mg/L: Table 21, 0.03 mg/L; for the inhibition rate against rice blast (%) 0.1 mg/L: Table 21, 0.1 mg/L; for the inhibition rate against rice blast (%) 0.3 mg/L: Table 21, 0.3 mg/L
[2] = tested on: corn rust; assay: Protectant activity in vivo (whole plant) against corn rust
Method: The method is as followed: The whole plant is used in this test. The compound is dissolved in a proper solvent to get mother solution. The proper solvent is selected from acetone, methanol, DMF and so on according to their dissolving capability to the sample. The volume rate of solvent and testing solution (v/v) is equal to or less than 5%. The mother solution is diluted with water containing 0.1% tween-80 to get the testing solution whose concentration is designed. The testing solution is sprayed to the host plant by a special plant sprayer. The plant is inoculated with fungus after 24 hours. According to the infecting characteristic of fungus, the plant is stored in a humidity chamber and then transferred into greenhouse after infection is finished. And the other plants are placed in greenhouse directly. The activity of compound is obtained by eyeballing after 7 days in common.

[3] = tested on: cucumber gray mold; assay: Activity in vitro (96-well, High Through Put): inhibition rate against cucumber gray mold; type: cell-based; conditions: for inhibition at 25 µg/mL: dose 25 mg/L
Method: The method is as followed: High Through Put is used in the test. The compound is dissolved in a proper solvent to become a testing solution whose concentration is designed. The solvent is selected from acetone, methanol, DMF and so on according to their dissolving capability to the sample. In a no animalcule condition, the testing solution and pathogens suspension are added into the cells of 96 cells culture board, which then should be placed in the constant temperature box. 24 hours later, pathogen germination or growth can be investigated by eyeballing, and the activity in vitro of the compound is evaluated based on germination or growth of control treatment.

[4] = tested on: cucumber downy mildew; assay: Protectant activity in vivo (whole plant) against cucumber downy mildew; conditions: for pest or weed control at 12.5 µg/mL / pest or weed control at 25 µg/mL / pest or weed control at 50 µg/mL / pest or weed control at 100 µg/mL: Cucumis sativus, 168 h
Method in brief: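 Compound stock in organic solvent (≤5% v/v) diluted in water with 0.1% Tween-80 and sprayed onto whole host plants. Fungal inoculation 24 h later; humidity chamber then greenhouse as the pathogen requires. Activity rated visually, usually after 7 days.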

[5] = Pyricularia oryzae, read-out: inhibition rate against rice blast
[6] = Pyricularia oryzae, read-out: the inhibition rate against rice blast (%) 0.3 mg/L
[7] = 0.9 mg/L, read-out: the inhibition rate against cucumber gray mold (%)
[8] = 2.8 mg/L, read-out: the inhibition rate against cucumber gray mold (%)
[9] = 8.3 mg/L, read-out: the inhibition rate against cucumber gray mold (%)
[10] = in vitro, dose 2.8 mg/L, read-out: inhibition rate against cucumber gray mold
[11] = 25 mg/L, read-out: the protectant activity (%) against cucumber downy mildew
[12] = 50 mg/L, read-out: the protectant activity (%) against cucumber downy mildew
[13] = 100 mg/L, read-out: the protectant activity (%) against cucumber downy mildew
[14] = dose 25 mg/L, read-out: protectant activity against cucumber downy mildew in vivo
[15] = dose 50 mg/L, read-out: protectant activity against cucumber downy mildew in vivo

Row | Compound | inhibition at 0.03 µg/mL ([1]; Pyricularia oryzae) [%] | inhibition at 0.1 µg/mL ([1]; Pyricularia oryzae) [%] | inhibition at 0.3 µg/mL [1, 6] [%] | inhibition at 0.3 µg/mL ([3]; 0.3 mg/L) [%] | inhibition at 0.9 µg/mL [3, 7] [%] | inhibition at 2.8 µg/mL [3, 8] [%] | inhibition at 8.3 µg/mL [3, 9] [%] | the inhibition rate against rice blast (%) 0.03 mg/L [1] [%] | the inhibition rate against rice blast (%) 0.1 mg/L [1] [%] | the inhibition rate against rice blast (%) 0.3 mg/L [1] [%] | the inhibition rate against cucumber gray mold (%) ([3]; 0.9 mg/L) | the inhibition rate against cucumber gray mold (%) ([3]; 2.8 mg/L) | the inhibition rate against cucumber gray mold (%) ([3]; 8.3 mg/L) | the inhibition rate against cucumber gray mold (%) ([3]; 0.3 mg/L) | further results
1 | CCOc1ccccc1Nc1c(F)c(F)c(C#N)c(C#N)c1F [KC26] | 0 | 0 | 0 | 0 | 0 | 0 | 0 |  |  |  |  |  |  |  | inhibition at 25 µg/mL [1, 5]: 0%; pest or weed control at 6.25 µg/mL ([2]; Zea mays, 168 h, 6.25 mg/L): 0%; pest or weed control at 25 µg/mL ([2]; Zea mays, 168 h, 25 mg/L): 0%; pest or weed control at 100 µg/mL ([2]; Zea mays, 168 h, 100 mg/L): 0%; pest or weed control at 400 µg/mL ([2]; Zea mays, 168 h, 400 mg/L, read-out: the protectant activity (%) against corn rust): 0%; pest or weed control at 400 µg/mL ([2]; Zea mays, 168 h, dose 400 mg/L, read-out: protectant activity against corn rust in vivo): 0%; inhibition at 25 µg/mL ([3]; in vitro): 0%
2 | N#Cc1c(F)c(F)c(Nc2ccc([N+](=O)[O-])cc2)c(C#N)c1F [KC11] | 0 | 0 | 0 | 0 | 0 | 0 | 50 |  |  |  |  |  |  |  | inhibition at 0.9 µg/mL [1, 5]: 0%; inhibition at 2.8 µg/mL [3, 10]: 0%; pest or weed control at 12.5 µg/mL ([4]; 12.5 mg/L): 0%; pest or weed control at 25 µg/mL [4, 11]: 0%; pest or weed control at 50 µg/mL [4, 12]: 0%; pest or weed control at 100 µg/mL [4, 13]: 0%; pest or weed control at 25 µg/mL [4, 14]: 0%; pest or weed control at 50 µg/mL [4, 15]: 0%
3 | N#Cc1cc(Cl)c(Nc2c(Cl)c(Cl)c(C#N)c(Cl)c2C#N)c(Cl)c1 [Compound B-51] |  |  |  |  |  |  |  | 0 | 50 | 100 | 80 | 80 | 100 |  | 
4 | N#Cc1c(Cl)c(Cl)c(Nc2ccc([N+](=O)[O-])cc2Cl)c(C#N)c1Cl [Compound B-35] |  |  |  |  |  |  |  | 50 | 80 | 100 | 100 | 100 | 100 | 100 | the protectant activity (%) against cucumber downy mildew ([4]; 12.5 mg/L): 98%; the protectant activity (%) against cucumber downy mildew ([4]; 25 mg/L): 98%; the protectant activity (%) against cucumber downy mildew ([4]; 50 mg/L): 98%; the protectant activity (%) against cucumber downy mildew ([4]; 100 mg/L): 100%; protectant activity against cucumber downy mildew in vivo ([4]; dose 12.5 mg/L): 98%; protectant activity against cucumber downy mildew in vivo ([4]; dose 50 mg/L): 98%; protectant activity against cucumber downy mildew in vivo ([4]; dose 100 mg/L): 100%; protectant activity against cucumber downy mildew in vivo ([4]; dose 400 mg/L): 100%
5 | N#Cc1c(Cl)c(Cl)c(C#N)c(Nc2c(F)cc([N+](=O)[O-])cc2F)c1Cl [Compound C-45] |  |  |  |  |  |  |  | 100 | 100 | 100 | 100 | 100 | 100 | 100 | 
6 | N#Cc1c(Cl)c(Cl)c(Nc2c(Cl)cncc2Cl)c(Cl)c1C#N [Compound A-87] |  |  |  |  |  |  |  | 100 | 100 | 100 |  |  |  |  | the protectant activity (%) against corn rust ([2]; 6.25 mg/L): 50%; the protectant activity (%) against corn rust ([2]; 25 mg/L): 80%; the protectant activity (%) against corn rust ([2]; 100 mg/L): 100%; the protectant activity (%) against corn rust ([2]; 400 mg/L): 100%; protectant activity against corn rust in vivo ([2]; dose 100 mg/L): 100%; inhibition rate against cucumber gray mold ([3]; in vitro, dose 8.3 mg/L): 80%
7 | CN(C)c1ccc(Nc2c(Cl)c(Cl)c(C#N)c(Cl)c2C#N)cc1 [KC23] | 0 | 0 | 0 | 0 | 0 | 0 | 0 |  |  |  |  |  |  |  | inhibition at 25 µg/mL [1, 5]: 0%; inhibition at 25 µg/mL ([3]; in vitro): 0%
8 | N#Cc1c(Cl)c(Cl)c(Nc2cc(C(F)(F)F)ccc2Cl)c(C#N)c1Cl [Compound B-29] |  |  |  |  |  |  |  | 0 | 50 | 100 | 50 | 80 | 80 |  | inhibition rate against cucumber gray mold ([3]; in vitro, dose 8.3 mg/L): 80%; the protectant activity (%) against cucumber downy mildew ([4]; 12.5 mg/L): 30%; the protectant activity (%) against cucumber downy mildew ([4]; 25 mg/L): 100%; the protectant activity (%) against cucumber downy mildew ([4]; 50 mg/L): 100%; the protectant activity (%) against cucumber downy mildew ([4]; 100 mg/L): 100%; protectant activity against cucumber downy mildew in vivo ([4]; dose 25 mg/L): 100%; protectant activity against cucumber downy mildew in vivo ([4]; dose 50 mg/L): 100%; protectant activity against cucumber downy mildew in vivo ([4]; dose 100 mg/L): 100%; protectant activity against cucumber downy mildew in vivo ([4]; dose 400 mg/L): 100%
9 | COc1ccc(Nc2c(F)c(F)c(C#N)c(F)c2C#N)cc1 [KC10] | 0 | 0 | 0 | 0 | 0 | 0 | 80 |  |  |  |  |  |  |  | inhibition at 0.3 µg/mL [1, 5]: 0%; inhibition at 0.9 µg/mL [1, 5]: 50%; inhibition at 2.8 µg/mL [3, 10]: 0%; pest or weed control at 12.5 µg/mL ([4]; 12.5 mg/L): 0%; pest or weed control at 25 µg/mL [4, 11]: 0%; pest or weed control at 50 µg/mL [4, 12]: 10%; pest or weed control at 100 µg/mL [4, 13]: 20%; pest or weed control at 25 µg/mL [4, 14]: 0%; pest or weed control at 50 µg/mL [4, 15]: 10%
10 | CN(C)c1c(Cl)c(Nc2c(Cl)cc([N+](=O)[O-])cc2Cl)c(C#N)c(Cl)c1C#N [Compound B-73] |  |  |  |  |  |  |  | 0 | 0 | 80 |  |  |  |  | inhibition rate against rice blast ([1]; in vitro, dose 0.3 mg/L): 80%; the protectant activity (%) against corn rust ([2]; 6.25 mg/L): 30%; the protectant activity (%) against corn rust ([2]; 25 mg/L): 70%; the protectant activity (%) against corn rust ([2]; 100 mg/L): 100%; the protectant activity (%) against corn rust ([2]; 400 mg/L): 98%; protectant activity against corn rust in vivo ([2]; dose 100 mg/L): 100%; protectant activity against corn rust in vivo ([2]; dose 400 mg/L): 100%; the protectant activity (%) against cucumber downy mildew ([4]; 25 mg/L): 50%; the protectant activity (%) against cucumber downy mildew ([4]; 50 mg/L): 100%; the protectant activity (%) against cucumber downy mildew ([4]; 100 mg/L): 100%; protectant activity against cucumber downy mildew in vivo ([4]; dose 50 mg/L): 100%; protectant activity against cucumber downy mildew in vivo ([4]; dose 100 mg/L): 100%; protectant activity against cucumber downy mildew in vivo ([4]; dose 400 mg/L): 100%
11 | N#Cc1c(Cl)c(Cl)c(C#N)c(Nc2c(F)cc([N+](=O)[O-])cc2Cl)c1Cl [Compound C-46] |  |  |  |  |  |  |  | 100 | 100 | 100 | 100 | 100 | 100 | 100 | protectant activity against corn rust in vivo ([2]; dose 400 mg/L): 80%
12 | N#Cc1c(Cl)c(Cl)c(Nc2c(F)cc([N+](=O)[O-])cc2F)c(Cl)c1C#N [Compound A-43] |  |  |  |  |  |  |  | 100 | 100 | 100 | 100 | 100 | 100 | 100 | protectant activity against corn rust in vivo ([2]; dose 400 mg/L): 100%
13 | N#Cc1c(F)c(F)c(Nc2c(Cl)c(F)nc(F)c2Cl)c(F)c1C#N [KC28] | 0 | 0 | 0 | 0 | 0 | 0 | 0 |  |  |  |  |  |  |  | inhibition at 2.8 µg/mL [1, 5]: 0%; inhibition at 8.3 µg/mL [1, 5]: 50%; inhibition at 25 µg/mL [1, 5]: 80%; inhibition at 8.3 µg/mL ([3]; in vitro, dose 8.3 mg/L, read-out: inhibition rate against cucumber gray mold): 0%; inhibition at 25 µg/mL ([3]; in vitro): 80%
